Experimental data published in the NIST ThermoML archive (doi:10.1021/acs.jced.7b00035).
Where “and” joins values, the source holds several entries; their conditions need not be identical. Equal values may be shown once. Numbers after ± are expanded uncertainties.

What was measured:
[1] = xn = mol fraction of the nth substance listed; conditions: 100 kPa, Liquid, Vibrating tube method
[2] = excess molar enthalpy (molar enthalpy of mixing); xn = mol fraction of the nth substance listed; conditions: 100 kPa, Liquid, Flow calorimetry

CCC(=O)CC [pentan-3-one] + O
Conditions | excess molar enthalpy, [2] [kcal/mol] | mass density, [1] [kg/m3]
288.15 K, x1 = 0.000848 | -0.00261 ± 0.000208 | 998.595 ± 0.034
288.15 K, x1 = 0.000849 | -0.00264 ± 0.000208 | 998.589 ± 0.034
288.15 K, x1 = 0.001695 | -0.00514 ± 0.000234 | 998.107 ± 0.035
288.15 K, x1 = 0.001696 | -0.0052 ± 0.000237 | 998.104 ± 0.035
288.15 K, x1 = 0.00254 | -0.00771 ± 0.000287 | 997.609 ± 0.037
288.15 K, x1 = 0.002542 | -0.00769 ± 0.000287 | 997.616 ± 0.037
288.15 K, x1 = 0.003385 | -0.0102 ± 0.000335 | 997.144 ± 0.039
288.15 K, x1 = 0.003386 | -0.0102 ± 0.000335 | 997.139 ± 0.039
288.15 K, x1 = 0.004227 | -0.0127 ± 0.000382 | 996.667 ± 0.041
288.15 K, x1 = 0.004229 | -0.0126 ± 0.000382 | 996.682 ± 0.041
288.15 K, x1 = 0.005069 | -0.015 ± 0.00043 | 996.228 ± 0.044
288.15 K, x1 = 0.005071 | -0.015 ± 0.00043 | 996.221 ± 0.044
298.15 K, x1 = 0.000847 | -0.00214 | 996.504 ± 0.035
298.15 K, x1 = 0.001693 | -0.00429 ± 0.000222 | 995.96 ± 0.036
298.15 K, x1 = 0.001694 | -0.00426 ± 0.000222 | 995.958 ± 0.036
298.15 K, x1 = 0.002537 | -0.00626 ± 0.000263 | 995.458 ± 0.038
298.15 K, x1 = 0.002539 | -0.0063 ± 0.000263 | 995.442 ± 0.038
298.15 K, x1 = 0.00338 | -0.00823 ± 0.000287 | 994.944 ± 0.041
298.15 K, x1 = 0.003383 | -0.0083 ± 0.000287 | 994.931 ± 0.041
298.15 K, x1 = 0.004222 | -0.0103 ± 0.000335 | 994.42 ± 0.044
298.15 K, x1 = 0.004225 | -0.0103 ± 0.000335 | 994.423 ± 0.044
298.15 K, x1 = 0.005064 | -0.0123 ± 0.000382 | 993.924 ± 0.061
298.15 K, x1 = 0.005066 | -0.0123 ± 0.000382 | 993.902 ± 0.061
308.15 K, x1 = 0.000848 | -0.00167 ± 0.000198 | 993.46 ± 0.036
308.15 K, x1 = 0.000849 | -0.00169 ± 0.000198 | 993.449 ± 0.036
308.15 K, x1 = 0.001695 | -0.00332 ± 0.000213 | 992.887 ± 0.038
308.15 K, x1 = 0.001696 | -0.00332 ± 0.000213 | 992.873 ± 0.038
308.15 K, x1 = 0.00254 | -0.00493 ± 0.000232 | 992.322 ± 0.04
308.15 K, x1 = 0.002543 | -0.00497 ± 0.000232 | 992.311 ± 0.04
308.15 K, x1 = 0.003384 | -0.00646 ± 0.000263 | 991.77 ± 0.043
308.15 K, x1 = 0.003387 | -0.00641 ± 0.000263 | 991.774 ± 0.043
308.15 K, x1 = 0.004226 | -0.00797 ± 0.000287 | 991.241 ± 0.46
308.15 K, x1 = 0.004231 | -0.00798 ± 0.000287 | 991.216 ± 0.46
308.15 K, x1 = 0.005069 | -0.00955 ± 0.000382 | 990.666 ± 2.4
308.15 K, x1 = 0.005074 | -0.00957 ± 0.000382 | 990.66 ± 2.4
318.15 K, x1 = 0.000849 | -0.00121 ± 0.000196 | 989.61 ± 0.038
318.15 K, x1 = 0.00085 | -0.00122 ± 0.000196 | 989.603 ± 0.038
318.15 K, x1 = 0.001697 | -0.00241 ± 0.000206 | 989.005 ± 0.04
318.15 K, x1 = 0.001698 | -0.00241 ± 0.000206 | 988.992 ± 0.04
318.15 K, x1 = 0.002543 | -0.00355 ± 0.000213 | 988.399 ± 0.078
318.15 K, x1 = 0.002544 | -0.00357 ± 0.000215 | 988.396 ± 0.042
318.15 K, x1 = 0.003388 | -0.00462 ± 0.000227 | 987.821 ± 0.045
318.15 K, x1 = 0.00339 | -0.00467 ± 0.000227 | 987.82 ± 0.045
318.15 K, x1 = 0.004231 | -0.00576 ± 0.000239 | 987.229 ± 0.049
318.15 K, x1 = 0.004233 | -0.00573 ± 0.000239 | 987.234 ± 0.049
318.15 K, x1 = 0.005073 | -0.00678 ± 0.000263 | 986.636 ± 0.053
318.15 K, x1 = 0.005076 | -0.00682 ± 0.000263 | 986.636 ± 0.053

CCCC(C)=O [pentan-2-one] + O
Conditions | excess molar enthalpy, [2] | mass density, [1]
288.15 K, x1 = 0.000842 | -0.00254 kcal/mol and -0.00255 kcal/mol | 998.562 ± 0.034 kg/m3 and 998.56 ± 0.034 kg/m3
288.15 K, x1 = 0.001683 | -0.00506 kcal/mol | 998.027 ± 0.036 kg/m3 and 998.026 ± 0.036 kg/m3
288.15 K, x1 = 0.002522 | -0.00753 kcal/mol and -0.00751 kcal/mol | 997.512 ± 0.037 kg/m3 and 997.513 ± 0.037 kg/m3
288.15 K, x1 = 0.00336 | -0.00987 ± 0.000335 kcal/mol | 997.021 ± 0.04 kg/m3
288.15 K, x1 = 0.003361 | -0.00991 ± 0.000335 kcal/mol | 997.002 ± 0.04 kg/m3
288.15 K, x1 = 0.004197 | -0.0122 ± 0.000382 kcal/mol | 996.522 ± 0.043 kg/m3
288.15 K, x1 = 0.004198 | -0.0123 ± 0.000382 kcal/mol | 996.499 ± 0.043 kg/m3
288.15 K, x1 = 0.005032 | -0.0146 ± 0.00043 kcal/mol | 996.016 ± 0.045 kg/m3
288.15 K, x1 = 0.005035 | -0.0146 ± 0.00043 kcal/mol | 996.015 ± 0.045 kg/m3
298.15 K, x1 = 0.000841 | -0.00207 ± 0.000203 kcal/mol | 996.472 ± 0.035 kg/m3
298.15 K, x1 = 0.000842 | -0.00207 ± 0.000203 kcal/mol | 996.472 ± 0.035 kg/m3
298.15 K, x1 = 0.001681 | -0.00411 ± 0.00022 kcal/mol | 995.903 ± 0.037 kg/m3
298.15 K, x1 = 0.001682 | -0.00412 ± 0.00022 kcal/mol | 995.902 ± 0.037 kg/m3
298.15 K, x1 = 0.00252 | -0.00613 ± 0.000263 kcal/mol | 995.346 ± 0.039 kg/m3
298.15 K, x1 = 0.002521 | -0.00617 ± 0.000263 kcal/mol | 995.334 ± 0.039 kg/m3
298.15 K, x1 = 0.003357 | -0.00809 ± 0.000287 kcal/mol | 994.797 ± 0.042 kg/m3
298.15 K, x1 = 0.003358 | -0.008 ± 0.000287 kcal/mol | 994.811 ± 0.042 kg/m3
298.15 K, x1 = 0.004193 | -0.00999 kcal/mol and -0.00995 kcal/mol | 994.25 ± 0.045 kg/m3 and 994.26 ± 0.045 kg/m3
298.15 K, x1 = 0.005028 | -0.0119 ± 0.000359 kcal/mol | 993.716 ± 0.062 kg/m3
298.15 K, x1 = 0.005029 | -0.0119 ± 0.000359 kcal/mol | 993.707 ± 0.062 kg/m3
308.15 K, x1 = 0.000841 | -0.00163 ± 0.000198 kcal/mol | –
308.15 K, x1 = 0.000842 | -0.00164 ± 0.000198 kcal/mol | 993.42 ± 0.036 kg/m3
308.15 K, x1 = 0.001681 | -0.00322 ± 0.000213 kcal/mol | 992.814 ± 0.038 kg/m3
308.15 K, x1 = 0.001683 | -0.00322 ± 0.000213 kcal/mol | 992.818 ± 0.038 kg/m3
308.15 K, x1 = 0.00252 | -0.00476 ± 0.000229 kcal/mol | 992.226 ± 0.041 kg/m3
308.15 K, x1 = 0.002522 | -0.00473 ± 0.000227 kcal/mol | 992.228 ± 0.041 kg/m3
308.15 K, x1 = 0.003358 | -0.00626 ± 0.000263 kcal/mol | 991.617 ± 0.044 kg/m3
308.15 K, x1 = 0.00336 | -0.00623 ± 0.000263 kcal/mol | 991.643 ± 0.044 kg/m3
308.15 K, x1 = 0.004194 | -0.00773 ± 0.000287 kcal/mol | 991.052 ± 0.047 kg/m3
308.15 K, x1 = 0.004197 | -0.00775 ± 0.000287 kcal/mol | 991.045 ± 0.047 kg/m3
308.15 K, x1 = 0.005031 | -0.00918 ± 0.000311 kcal/mol | 990.475 ± 0.063 kg/m3
308.15 K, x1 = 0.005034 | -0.00916 ± 0.000311 kcal/mol | 990.474 ± 0.063 kg/m3
318.15 K, x1 = 0.00084 | -0.00118 ± 0.000194 kcal/mol | 989.57 ± 0.038 kg/m3
318.15 K, x1 = 0.001679 | -0.00232 ± 0.000206 kcal/mol | 988.929 ± 0.04 kg/m3
318.15 K, x1 = 0.002517 | -0.00341 ± 0.000215 kcal/mol | 988.307 ± 0.043 kg/m3
318.15 K, x1 = 0.003354 | -0.0045 ± 0.000225 kcal/mol | 987.666 ± 0.046 kg/m3
318.15 K, x1 = 0.004189 | -0.00553 ± 0.000239 kcal/mol | 987.058 ± 0.049 kg/m3
318.15 K, x1 = 0.005024 | -0.0065 ± 0.000263 kcal/mol | 986.447 ± 0.054 kg/m3
